Read-outs that look alike come from different tables or passages of the source.
Experiments:
U251 = experiment: NCI-60 SRB screen, CNS cancer; format: cell-based, human; settings: Homo sapiens, U-251, 48 h
LOX IMVI = experiment: NCI-60 SRB screen, melanoma; format: cell-based, human; settings: Homo sapiens, 48 h
IGROV1 = experiment: NCI-60 SRB screen, ovarian cancer; format: cell-based, human; settings: Homo sapiens, IGROV-1, 48 h
HOP-62 = experiment: NCI-60 SRB screen, non-small cell lung cancer; format: cell-based, human; settings: Homo sapiens, HOP-62, 48 h
UO-31 = experiment: NCI-60 SRB screen, renal cancer; format: cell-based, human; settings: Homo sapiens, UO-31, 48 h
OVCAR-4 = experiment: NCI-60 SRB screen, ovarian cancer; format: cell-based, human; settings: Homo sapiens, OVCAR-4, 48 h
NCI-H552 = experiment: NCI-60 SRB screen, non-small cell lung cancer; format: cell-based, human; settings: Homo sapiens, 48 h
SK-MEL-28 = experiment: NCI-60 SRB screen, melanoma; format: cell-based, human; settings: Homo sapiens, SK-MEL-28, 48 h
SW-620 = experiment: NCI-60 SRB screen, colon cancer; format: cell-based, human; settings: Homo sapiens, SW-620, 48 h
SN12C = experiment: NCI-60 SRB screen, renal cancer; format: cell-based, human; settings: Homo sapiens, 48 h
HCT-15 = experiment: NCI-60 SRB screen, colon cancer; format: cell-based, human; settings: Homo sapiens, HCT-15, 48 h
RXF 393 = experiment: NCI-60 SRB screen, renal cancer; format: cell-based, human; settings: Homo sapiens, RXF 393, 48 h
RPMI-8226 = experiment: NCI-60 SRB screen, leukemia; format: cell-based, human; settings: Homo sapiens, RPMI-8226, 48 h
MDA-MB-435 = experiment: NCI-60 SRB screen, melanoma; format: cell-based, human; settings: Homo sapiens, MDA-MB-435, 48 h
[1] = tested on: NCI 60 human cancer cell line panel; experiment: NCI 60 cell line screen (SRB), panel values; settings: for CC50: read-out: Mean LC50; for IC (TGI (total growth inhibition)): read-out: Mean TGI
CCRF-CEM = experiment: NCI-60 SRB screen, leukemia; format: cell-based; settings: Homo sapiens, 48 h
BT-549 = experiment: NCI-60 SRB screen, breast cancer; format: cell-based, human; settings: Homo sapiens, BT-549, 48 h
A549/ATCC = experiment: NCI-60 SRB screen, non-small cell lung cancer; format: cell-based, human; settings: Homo sapiens, A549, 48 h
COLO 205 = experiment: NCI-60 SRB screen, colon cancer; format: cell-based, human; settings: Homo sapiens, COLO 205, 48 h
786-0 = experiment: NCI-60 SRB screen, renal cancer; format: cell-based, human; settings: Homo sapiens, 786-0, 48 h
KM12 = experiment: NCI-60 SRB screen, colon cancer; format: cell-based, human; settings: Homo sapiens, KM12, 48 h
T-47D = experiment: NCI-60 SRB screen, breast cancer; format: cell-based, human; settings: Homo sapiens, T47D, 48 h
OVCAR-3 = experiment: NCI-60 SRB screen, ovarian cancer; format: cell-based, human; settings: Homo sapiens, OVCAR-3, 48 h
HOP-92 = experiment: NCI-60 SRB screen, non-small cell lung cancer; format: cell-based, human; settings: Homo sapiens, HOP-92, 48 h
SK-OV-3 = experiment: NCI-60 SRB screen, ovarian cancer; format: cell-based, human; settings: Homo sapiens, SK-OV-3, 48 h
EKVX = experiment: NCI-60 SRB screen, non-small cell lung cancer; format: cell-based, human; settings: Homo sapiens, 48 h
MCF-7 = experiment: cells; settings: Homo sapiens, MCF7, 48 h
HS 578T = experiment: NCI-60 SRB screen, breast cancer; format: cell-based; settings: Homo sapiens, Hs-578T, 48 h
HT29 = experiment: NCI-60 SRB screen, colon cancer; format: cell-based, human; settings: Homo sapiens; for IC50: HT-29; for GI50: HT-29, 48 h
HCT-116 = experiment: NCI-60 SRB screen, colon cancer; format: cell-based, human; settings: Homo sapiens, HCT-116, 48 h
A498 = experiment: NCI-60 SRB screen, renal cancer; format: cell-based, human; settings: Homo sapiens, A498, 48 h
HCT-2998 = experiment: NCI-60 SRB screen, colon cancer; format: cell-based, human; settings: Homo sapiens, 48 h
[2] = Homo sapiens, 60 cell, read-out: Mean GI50, mean over all NCI 60 cell lines
[3] = read-out: Mean GI50, mean over all NCI 60 cell lines

SMILES	GI50 (U251) [nM]	GI50 (LOX IMVI) [nM]	GI50 (IGROV1) [nM]	GI50 (HOP-62) [nM]	GI50 (UO-31) [nM]	GI50 (OVCAR-4) [nM]	GI50 (NCI-H552) [nM]	GI50 (SK-MEL-28) [nM]	GI50 (SW-620) [nM]	GI50 (SN12C) [nM]	GI50 (HCT-15) [nM]	GI50 (RXF 393) [nM]	GI50 (RPMI-8226) [nM]	GI50 (MDA-MB-435) [nM]	GI50 [1, 2] [nM]	CC50 ([1]; Homo sapiens, 60 cell) [nM]	IC (TGI (total growth inhibition)) ([1]; Homo sapiens, 60 cell) [nM]	GI50 [1, 3] [nM]	GI50 (CCRF-CEM) [nM]	GI50 (BT-549) [nM]	also measured
C=C/C=C/C1C(=O)N(c2cc(OC)c(OC)c(OC)c2)C1c1ccc(OC)c(N)c1 (stereo not drawn) [11r, (E)-4-(3-Amino-4-methoxyphenyl)-3-(buta-1,3-dien-1-yl)-1-(3,4,5-trimethoxyphenyl)azetidin-2-one]	35.7	34.4	46.6	52.5	190	38.8	16.9	> 100000	42.9	59.1	37	45.7	34.8	22.1	< 91.2	77600	38000	91.2	36.5	25.3	GI50 (A549/ATCC): 38 nM; GI50 (COLO 205): 23.1 nM; GI50 (786-0): 32.7 nM; GI50 (KM12): 33.1 nM; GI50 (T-47D): > 100000 nM; GI50 (OVCAR-3): 26.2 nM; GI50 (HOP-92): 25.3 nM; GI50 (SK-OV-3): 35.6 nM; GI50 (EKVX): 88 nM; GI50 (MCF-7): 33.6 nM; GI50 (HS 578T): 53 nM; IC50 (HT29): 34 nM; GI50 (HT29): 33.6 nM; GI50 (HCT-116): 27.2 nM; GI50 (A498): 22.3 nM; GI50 (HCT-2998): 27 nM
C=CC=CC1C(=O)N(c2cc(OC)c(OC)c(OC)c2)C1c1ccc(OC)cc1 (stereo not drawn) [11h, 3-(Buta-1,3-dienyl)-4-(4-methoxyphenyl)-1-(3,4,5-trimethoxyphenyl)azetidin-2-one]	32.2	32.7	50.7	55.8	216	37.3	15.1	16000	43.8	50.8	40.5	30.1	38.4	19.1	< 91.2	77600	8910	58.9	37.8	20.3	GI50 (A549/ATCC): 36.4 nM; GI50 (COLO 205): 26.5 nM; GI50 (786-0): 23.1 nM; GI50 (KM12): 30.4 nM; GI50 (T-47D): 56200 nM; GI50 (OVCAR-3): 25.2 nM; GI50 (HOP-92): 24.4 nM; GI50 (SK-OV-3): 37.3 nM; GI50 (EKVX): 83.4 nM; GI50 (MCF-7): 33.5 nM; GI50 (HS 578T): 24.7 nM; IC50 (HT29): 33 nM; GI50 (HT29): 33.2 nM; GI50 (HCT-116): 26.4 nM; GI50 (A498): 18.3 nM; GI50 (HCT-2998): 30 nM
